Measured values from patent US20210052544A1, “METHODS OF TREATING AND/OR […] USING NABILONE” (Solantech Inc., priority 2018, published 2021).

Test system: bedsores
Assay: Clinical observation of bedsores in dementia patients with agitation treated orally with nabilone
Assay type: in vivo
Method: Patients with dementia having agitation were treated orally at a dose of 0.5 mg nabilone twice a day initially and then going up to a total of 2 mg per day to reduce agitation. […] The number of patients where this effect was observed was six. The perceived impact on healing was significant with healing times varying between 3-6 weeks for small sores.

## CCCCCCC(C)(C)c1cc(O)c2c(c1)OC(C)(C)C1CCC(=O)CC21 (stereo not shown) [nabilone]
Oral 0.5 mg twice a day up to 2 mg per day
  large sores in treated patients: No large sores were observed
Patients who did have bedsores, oral 0.5 mg twice a day up to 2 mg per day
  healing of existing bedsores: the bedsores appeared to heal faster
Patients with dementia having agitation, oral 0.5 mg twice a day initially, up to total 2 mg per day, effect observed in six patients
  number and/or severity of bedsores: perceived reduction in the number and/or severity of bedsores
Small sores, oral 0.5 mg twice a day up to 2 mg per day
  healing times for small sores: 3-6 weeks
